Consider two compounds from PMC11879098, “Phycocyanobilin Binding and Specific Amino Acid Residues Near The Chromophore Contribute To Orange Light Perception By The Dualchrome Phytochrome Region” (Plant and Cell Physiology, 2024).

One assay concerns the target T1, AtPhyB (Arabidopsis thaliana, UniProt P14713).
T1 construct: gene PHYB; His-tagged, E. coli C41, band about 70 kDa, so a truncated photosensory region
T1 sequence (P14713 1-624 limits assumed): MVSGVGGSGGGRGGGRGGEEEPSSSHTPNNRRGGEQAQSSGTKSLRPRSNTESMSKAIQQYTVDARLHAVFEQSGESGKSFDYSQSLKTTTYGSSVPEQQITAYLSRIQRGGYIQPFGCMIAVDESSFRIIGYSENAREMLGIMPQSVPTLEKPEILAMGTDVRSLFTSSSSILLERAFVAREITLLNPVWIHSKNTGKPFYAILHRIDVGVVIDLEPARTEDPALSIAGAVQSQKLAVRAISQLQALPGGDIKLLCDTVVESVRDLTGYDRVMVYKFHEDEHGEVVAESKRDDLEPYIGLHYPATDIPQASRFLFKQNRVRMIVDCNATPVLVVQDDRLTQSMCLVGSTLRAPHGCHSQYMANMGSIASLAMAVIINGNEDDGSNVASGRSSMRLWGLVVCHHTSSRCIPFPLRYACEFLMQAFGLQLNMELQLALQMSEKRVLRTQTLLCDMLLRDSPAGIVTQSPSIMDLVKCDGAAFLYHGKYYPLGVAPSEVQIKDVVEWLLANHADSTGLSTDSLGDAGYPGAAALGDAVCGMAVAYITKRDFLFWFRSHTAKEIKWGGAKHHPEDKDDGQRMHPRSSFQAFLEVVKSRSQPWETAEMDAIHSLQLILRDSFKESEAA
The assay is described as follows: co-expression with SyHO1 and ΔN_PpPcyA in E. coli, UV-vis absorption, Zn fluorescence, acid denaturation. The format is binding. As to conditions: covalent; pH 7.5.

In assay [1] the target is T2, PpDUC1-N (dualchrome 1 phytochrome region) (Pycnococcus provasolii, UniProt A0A830HT85).
T2 construct: gene PPROV_000692100; N-terminal phytochrome region (includes GAF and PHY domains) of the phytochrome-cryptochrome fusion; His-tagged, E. coli C41, about 75 kDa
Put plainly: expression in PΦB-producing E. coli, UV-vis absorption. As to conditions: covalent; difference spectrum; possibly data of Makita et al. 2021 shown again. The format is binding.

T2 sequence (A0A830HT85 entry or part of it): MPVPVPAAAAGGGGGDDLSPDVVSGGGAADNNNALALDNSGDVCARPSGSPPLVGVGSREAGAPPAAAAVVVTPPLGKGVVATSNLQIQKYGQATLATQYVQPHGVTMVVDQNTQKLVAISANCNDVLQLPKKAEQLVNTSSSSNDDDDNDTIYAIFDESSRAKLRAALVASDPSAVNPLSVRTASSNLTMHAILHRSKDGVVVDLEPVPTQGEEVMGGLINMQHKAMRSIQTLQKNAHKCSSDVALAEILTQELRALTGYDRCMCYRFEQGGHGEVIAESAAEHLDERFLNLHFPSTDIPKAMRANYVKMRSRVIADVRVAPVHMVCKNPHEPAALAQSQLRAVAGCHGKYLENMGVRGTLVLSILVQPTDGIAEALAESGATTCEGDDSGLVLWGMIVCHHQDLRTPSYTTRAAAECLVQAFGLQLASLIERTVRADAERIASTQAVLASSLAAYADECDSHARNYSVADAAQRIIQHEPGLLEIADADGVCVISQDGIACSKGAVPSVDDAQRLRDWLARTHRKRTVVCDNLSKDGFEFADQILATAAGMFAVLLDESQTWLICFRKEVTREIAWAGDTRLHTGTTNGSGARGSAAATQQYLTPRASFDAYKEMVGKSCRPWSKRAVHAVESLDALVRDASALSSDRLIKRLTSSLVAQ

Consider `CC=C1C(=Cc2[nH]c(C=C3N=C(C=C4NC(=O)C(CC)=C4C)C(C)=C3CCC(=O)O)c(CCC(=O)O)c2C)NC(=O)C1C` (centres unmarked) [PCB], for which, at AtPhyB, the “co-expression with SyHO1 and ΔN_PpPcyA in E. coli, UV-vis absorption, Zn fluores” value is listed as “difference spectrum of AtPhyB coexpressed with ΔN_PpPcyA was nearly identical to that of PCB-binding AtPhyB”.

On to `C=CC1=C(C)C(=CC2=NC(=Cc3[nH]c(C=C4NC(=O)C(C)C4=CC)c(C)c3CCC(=O)O)C(CCC(=O)O)=C2C)NC1=O` (centres unmarked) [PΦB], for which the “expression in PΦB-producing E. coli, UV-vis absorption” value in assay [1] is “difference spectrum of PpDUC1-N purified from PCB-producing and PΦB-producing E. coli”.
